Test results published in BindingDB's records for doi:10.1021/jm00392a002 (1987).
Non-standard residues stand in square brackets, D forms with d. Residues, ends and D or L forms follow the SMILES beside them. ξ: configuration not given here. Met(O) = CS(=O)CC[C@H](N)C(=O)O; ξA = CC(N)C(=O)O; Sar = CNCC(=O)O

Each compound was assayed against Delta-type opioid receptor (Cavia porcellus) (assay: Evaluated for the inhibition of [3H]DADLE binding to Opioid receptor delta 1 of guinea pig brain).

Row | SMILES | IC50 [nM]
1 | CN(CC(N)=O)C(=O)[C@H](Cc1ccccc1)NC(=O)[C@H](CC[S+](C)[O-])NC(=O)[C@@H](N)Cc1ccc(O)cc1 (stereo partly specified) (H-Y[Met(O)]F[Sar]-NH2) | 440
2 | COC(=O)CN(C)C(=O)[C@H](Cc1ccccc1)NC(=O)[C@H](CC[S+](C)[O-])NC(=O)[C@H](Cc1ccc(O)cc1)N=C(N)N (stereo partly specified) | 150
3 | C[C@@H](NC(=O)[C@@H](N)Cc1ccc(O)cc1)C(=O)N[C@@H](Cc1ccccc1)C(=O)NCC(N)=O (H-Y[dA]FG-NH2) | 818
4 | COC(=O)CN(C)C(=O)[C@H](Cc1ccccc1)NC(=O)[C@H](CC[S+](C)[O-])NC(=O)[C@@H](N)Cc1ccc(O)cc1 (stereo partly specified) (H-Y[Met(O)]F[Sar]-OMe) | 510
5 | CC(NC(=O)[C@H](Cc1ccccc1)NC(=O)[C@H](CC[S+](C)[O-])NC(=O)[C@@H](N)Cc1ccc(O)cc1)C(N)=O (stereo partly specified) (H-Y[Met(O)]F[ξA]-NH2) | 900
6 | CN(CC(=O)O)C(=O)[C@H](Cc1ccccc1)NC(=O)[C@H](CC[S+](C)[O-])NC(=O)[C@@H](N)Cc1ccc(O)cc1 (stereo partly specified) (H-Y[Met(O)]F[Sar]-OH) | 2120
